Data set [1] is described as follows: TEM of peptide assemblies (fibril formation / assembly). In kind it is physicochemical. More on the design: key to Fibril Formation: "1" means fibril formation observed; "0" means no fibrils observed. Conditions: for Fibril Formation: via TEM. Put shortly:
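Peptides predissolved in DMSO at 10 mg/mL (stock), diluted in PBS to 650 µM or 1 mg/mL final and incubated 1 d at rt (20–25 °C) to form fibrils. Other concentrations obtained by diluting preformed fibrils; assemblies imaged by TEM.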

The subject of data set [2] is HIV-1. Particulars: relative to virus only.
Description: HIV-1 Infection Assay with TZM-bl cells: The effect of peptide fibrils on HIV-1 infection was studied via a luminescence assay for β-galactosidase, which was reported by TZM-bl cells upon infection. The HIV-1 infection assay was conducted in three technical replicates and repeated in three independent experiments unless stated otherwise.
The test system of data set [3] is CD4+ T cells. The data set can be described thus: γ-retroviral transduction assay (GALV-RV, GFP+ cells). The format is cell-based, Human. The protocol:
(§1) γ-Retroviral transduction Assay with Jurkat and CD4+ T cells: The effect of peptide fibrils on retroviral transduction of Jurkat cells was analyzed 3 days post transduction by determining the percentage of GFP + cells by flow cytometry. The assay was conducted according prior art procedures.
Human CD4+ T cells were isolated from a Buffy coat using RosetteSep™ Human CD4+ Enrichment Cocktail ([…] Technologies) according to manufacturer's protocol. Isolated T cells were activated using Dynabeads™ Human T-Activator CD3/CD28 (GibcoTM) according to manufacturer's protocol in presence of 10 ng mL^-1 IL-2 (Miltenyi Biotec) for three days. After 3 days the magnetic Dynabeads were removed using a magnet and T cells were cultured in presence of 9 ng mL^-1 IL-7 (Miltenyi Biotec) and 10 ng mL^-1 IL-15 (Miltenyi Biotec). After 1 day 5×10^5 T cells were transduced with GALV-γ-RV in absence and presence of PA1, PA2, EF-C (0.26, 1.3 and 6.5 µM) and Vectofusin®-1 (10 µg mL^-1; Miltenyi Biotec), or RetroNectin (20 µg mL^-1; Takara Bio). […] After 3 days GFP+ T cells were analyzed by flow cytometry. Viability was determined using LIVE/DEAD™ Fixable Aqua Dead Cell Stain Kit (ThermoFisher Scientific) according to manufacturer's protocol.

The nature of data set [4]: Zeta-potential measurement (dynamic light scattering). The format is physicochemical.
For data set [5], the system named is HeLa cells. The data set can be described thus: Confocal laser scanning microscopy and degradation study with PA1-3 and HeLa cells. In kind it is cell-based. The protocol:
4 µL of the preformed peptide fibrils (1 mg mL^-1) were diluted with 4 µL Proteostat (Enzo Life Science, 1 µL stock in 999 µL PBS) and incubated for 10 min and further diluted with medium to receive a final peptide concentration of 20 µg mL^-1. The nucleus of the HeLa cells was stained with Hoechst 33342 (NucBlue™, Thermo Fisher Scientific). The peptide solution was transferred to the HeLa cells and incubated for 30 min at 37°C before washing three times with PBS. […] For the evaluation of aggregate degradation, the samples were further incubated at 37°C for 3 d and analyzed without any additional washing step. […] The number of aggregates were determined by accumulating the number of aggregates larger than 10 µm^2 in an area of 581.25 × 581.25 µm, repeated in three technical triplicates.

The subject of data set [6] is CD4+ T cells. Particulars: 3 days; 1 µg peptide added to 250,000 cells.
Description: Confocal laser scanning microscopy and degradation study with PA1-3 and CD4+ T cells: The degradation of the peptide assemblies on CD4+ T cells was determined by analyzing fluorescence microscopy images. To this end, 4 µL of the preassembled peptide fibrils EF-C, PA1 and PA2 (1 mg mL^-1, 1 d in PBS) were mixed with 4 µL of Proteostat (Enzo Life Science, 1 µL stock in 99 µL PBS) and incubated for 15 min. 2 µL of the stained fibrils were added to 198 µL preactivated and nucleus stained (Hoechst 33342) CD4+ T cells (200 µL, 0.25×10^6 resulting in a final 5 µg mL^-1concentration of the peptide. After incubation for 30 min at 37°C the cells were washed with 3x with PBS and incubated in medium (supplemented RPMI containing IL-15 and 7). Microscopy was conducted on a Zeiss LSM 710 confocal microscope with 20x and 63x objective and laser excitation wavelengths of 405 nm (Hoechst) and 561 nm (Proteostat). The measurements were performed after 30 min and 3 d of incubation at 37°C without any washing step in between. […]
The evaluation of aggregate size and number was conducted by analyzing Proteostat-stained aggregates via the 3D objects counter function of ImageJ 1.53f51 for 6 individual measurements (area 581.25 µm × 581.25 µm) of three individually repeated experiments. […] The degradation of the peptide assemblies on CD4+ T cells was determined by analyzing fluorescence microscopy images. […]
Data set [7] is described as follows: ATR-FT-IR determination of β-sheet content. The format is physicochemical. Particulars: peak integration of parallel β-sheet at 1630 cm-1, 2nd derivative of ATR-IR spectra. Put shortly: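 From second-derivative spectra, β-sheet amount is the 1630 cm-1 integral over the 1650-1700 cm-1 (native) region. Spectra were taken on solid, lyophilized fibrils via diamond-crystal ATR, averaging 64 scans at 2 cm^-1 resolution.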

Data set [8] is described as follows: Zeta-potential measurement (dynamic light scattering). The format is physicochemical. Put shortly: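 Peptide at 1 mg mL-1 stock was diluted tenfold in 1 mM KCl and measured by dynamic light scattering in triplicate. The derived count rate served as a light-scattering and turbidity indicator of microscopic aggregation.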
The source holds these as a separate data set.

The nature of data set [9]: Thioflavin T (ThT) fluorescence assay. In kind it is physicochemical. More on the design: key to ThT: + = ThT active; - = no ThT fluorescence observed. The method, boiled down: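 ThT fluorescence of peptide fibrils judged against a PBS/10% DMSO control; fibrils scored ThT-active when intensity was at least twice that control.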
In data set [10] the test system is HeLa cells. The data set can be described thus: Confocal laser scanning microscopy and degradation study with PA library and HeLa cells. In kind it is cell-based. Put shortly: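 HeLa cells (20,000/well) got Proteostat-stained PAs (2 µg peptide per 20.000 cells) with Hoechst nuclear stain, 30 min at 37°C, PBS-washed, then held 3 d at 37°C unwashed. Confocal imaging at d0 and d3 counted aggregates >10 µm^2 in 1008 × 1008 µm, three technical replicates. Degradation taken as d3/d0 aggregate number.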

A short description of data set [11]: Fluorescence microscopy of ThT-stained fibrils (µm-sized aggregates). In kind it is physicochemical. The method, boiled down: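 Fibrils (1 mg mL^-1) mixed 1:9 with 50 µM ThT, giving 0.1 mg mL^-1 stained fibrils on glass. Imaged under 10x air objective with excitation 480/40 nm and emission 527/30 nm. Fibrils called distinct when no visible structures appeared in fluorescence or brightfield.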

The subject of data set [12] is Jurkat cells. The data set can be described thus: γ-retroviral transduction assay (GALV-RV, GFP+ cells). The format is cell-based. The protocol: as §1

Each structure is given as a SMILES string. Several values for one entry are separate records, joined by “and”; a condition that tells them apart may be missing. Equal entries are not always repeated. Entries after “also recorded” stand apart in the source; their conditions may differ. Where a SMILES comes first, the peptide text is derived from it. The star is where a group is joined. Palmitoyl = CCCCCCCCCCCCCCCC(=O)*
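Wherever Infectivity enhancing N fold at 1.3 µM is given: TZM-bl reporter cells exposed to HIV-1 with peptide fibrils, infection read out as β-galactosidase luminescence, compared with virus alone.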

On to `CCCCCCCCCCCCCCCC(=O)N[C@H](C(=O)N[C@H](C(=O)N[C@H](C(=O)N[C@@H](C)C(=O)N[C@@H](C)C(=O)N[C@@H](C)C(=O)N[C@@H](CCCCN)C(=O)N[C@@H](CCCCN)C(=O)N[C@@H](CCCCN)C(N)=O)C(C)C)C(C)C)C(C)C` [PA1] (Palmitoyl-VVVAAAKKK-NH2), for which the “Assembly without hydrophob residue” value in [1] (corresponding peptide without hydrophobic moiety) is given as “No”. The Assembly result in [1] (peptide amphiphile) is given as “Yes”. Further, the “Fibril Formation” value in [1] (hydrophobic moiety exchange) and in data set [1] (linkage chemistry exchange) was 1 in each case. The “Infectivity enhancing N fold at 1.3 µM” value in data set [2] was 10±3 N fold. Also, the “transduction enhancement (in words)” value in [3] was “activity in the range of commercially available gold-standard enhancers RetroNectin and Vectofusin-1”; in [12], “strong transduction enhancement similar to EF-C”. Further, in data set [4], the “Zeta-Potential / mV” value came out at 22.2 mV. The “degraded over the course of 3 days in the presence of HeLa cells” value in data set [5] (4 µg peptide added to 40,000 cells) is listed as 94%. For the same compound, the “association with cellular membranes” value in data set [5] (HeLa cells, 30 min) was “association with cellular membranes”. Further, the “degradation of aggregates by CD4+ T cells (in words)” value in [6] is “almost all small aggregates of PA1 (SEQ ID NO. 4) are degraded by CD4+ T cells”. In addition, the “β-sheet content / %” value in data set [7] was 57%. In addition, in [8], the “zeta-potential (in words)” value was “positive zeta-potential”. Besides, the “Zeta Potential / mV” value in [8] (1 mg/mL, PBS) is “+22.2 ± 0.7 mV”. Moreover, the “Count Rate / kcps” value in data set [8] (derived count rate of scattered light during zeta-potential measurements) is recorded as 3138.4 kcps. In data set [9] (ThT fluorescence, 1 mg/mL, PBS), the ThT entry is “+”. Also, the “N-fold ThT-fluorescence” value in data set [9] (relative to PBS control) is recorded as 278.7. In addition, in data set [10] (HeLa cells, 3 d relative to 30 min), the “Degradability / % (rel. to initial particles > 10 µm^2)” value worked out at 94%. Moreover, the “aggregate number decreases / degraded in presence of HeLa cells within 3 days” value in [10] (d3 relative to d0) was 87% and 94%. Besides, in [11], the “formation of µm-sized aggregates in aqueous medium / PBS (in words)” value is listed as “formation of µm-sized aggregates; also recorded: microscopic clusters of fibrils were formed”.

Values taken from patent EP4458977A1, “SELF-ASSEMBLING PEPTIDE AMPHIPHILES AS RETROVIRAL TRANSDUCTION ENHANCERS” (Max-Planck-Gesellschaft zur Förderung der Wissenschaften …, priority 2023, dated 2024).
